Test results from patent US20140349989A1, “COMPOUNDS AND THERAPEUTIC USES THEREOF” (Alzheimer's Institute of America, priority 2011, published 2014).
Read-outs that look alike come from different tables or passages of the source.

Assay: Cytotoxicity Assay (HCT116, CellTiter-Glo)
Type: cell-based
Details: human
How it was run: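 Cells settled overnight, then exposed to compound in DMSO for 72 h, optionally with nicotinic acid (10 μM final) added alongside. Viability read as CellTiter-Glo luminescence.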

[1] = HCT116 cells, 72 hours drug incubation, CellTiter-Glo luminescence, read-out: HCT116 cell cytotoxicity IC50

For `CC(C)(C)OC(=O)N1CC(N2CC(CCCCCCNC(=O)NCc3cccnc3)c3ccccc32)C1` (stereo not shown) [Compound 121, tert-Butyl 3-[3-(6-{[(pyridin-3-yl-methyl)carbamoyl]amino}hexyl)-2,3-dihydro-1H-indol-1-yl]azetidine-1-carboxylate], the IC50 at 72 h (HCT116 cell cytotoxicity IC50) was < 100 nM.

With `CC(C)(C)OC(=O)N1CCC(n2cc(CCCCCCNC(=O)NCc3cccnc3)c3ccccc32)CC1` [Compound 123, tert-Butyl 4-[3-(6-{[(pyridin-3-ylmethyl)carbamoyl]amino}hexyl)-1H-indol-1-yl]piperidine-1-carboxylate] the IC50 at 72 h (HCT116 cell cytotoxicity IC50) was ≥ 100 nM.

With `O=C(NCCCCCn1cc(C(=O)N2CCN(C3CCCCC3)CC2)c2ccccc21)NCc1cncs1` [Compound 124, 1-(5-{3-[(4-Cyclohexyl-piperazin-1-yl)carbonyl]-1H-indol-1-yl}pentyl)-3-(1,3-thiazol-5-ylmethyl) urea] the IC50 at 72 h [1] was < 100 nM.

In the case of `CN1CCN(C2CCN(C(=O)c3cn(CCCNC(=O)NCc4cccnc4)c4ccccc34)CC2)CC1` [Compound 125, 1-[3-(3-{[4-(4-Methylpiperazin-1-yl)piperidin-1-yl]carbonyl}-1H-indol-1-yl)propyl]-3-(pyridin-3-ylmethyl)urea], the IC50 at 72 h [1] is reported as < 100 nM.

With `CCOCCOCCN1CCC2(CC1)CN(c1ccc(NC(=O)NCc3cccnc3)cc1)c1ccccc12` [Compound 126, 1-(4-{1′-[2-(2-Ethoxy-ethoxy)ethyl]spiro[indole-3,4′-piperidin]-1(2H)-yl}phenyl)-3-(pyridin-3-ylmethyl)urea] the IC50 at 72 h (HCT116 cell cytotoxicity IC50) was ≥ 100 nM.

In the case of `O=C(NCc1cccnc1)Nc1ccc(-n2c(Cl)c(C(=O)N3CCC(n4ccnc4)CC3)c3ccccc32)cc1` [Compound 127, 1-[4-(2-Chloro-3-{[4-(1H-imidazol-1-yl)piperidin-1-yl]carbonyl}-1H-indol-1-yl)phenyl]-3-(pyridin-3-ylmethyl)urea], the IC50 at 72 h (HCT116 cell cytotoxicity IC50) is reported as < 100 nM.

With `O=C(NCc1ccc(Cl)nc1)Nc1ccc(-n2cc(CCN3CCOCC3)c3ccccc32)cc1` [Compound 128, 1-[(6-Chloro-pyridin-3-yl)methyl]-3-(4-{3-[2-(morpholin-4-yl)ethyl]-1H-indol-1-yl}phenyl)urea] the IC50 at 72 h (HCT116 cell cytotoxicity IC50) was < 100 nM.

With `O=C(NCc1cccnc1)Nc1ccc(-n2cc(C3CCN(CCO)CC3)c3ccccc32)cc1` [Compound 129, 1-(4-{3-[1-(2-Hydroxy-ethyl)piperidin-4-yl]-1H-indol-1-yl}phenyl)-3-(pyridin-3-ylmethyl)urea] the IC50 at 72 h (HCT116 cell cytotoxicity IC50) was ≥ 100 nM.

With `O=C(NCc1cccnc1)Nc1ccc(N2CC3(CCN(C4CCOCC4)CC3)c3ccccc32)nc1` [Compound 130] the IC50 at 72 h (HCT116 cell cytotoxicity IC50) was < 100 nM.

In the case of `CC1CCCN1CCc1cn(-c2ccc(/C=C/C(=O)NCc3cccnc3)cc2)c2ccccc12` (stereo not shown) [Compound 161, (2E)-3-(4-{3-[2-(2-Methylpyrrolidin-1-yl)ethyl]-1H-indol-1-yl)phenyl)-N-(pyridin-3-ylmethyl)prop-2-enamide], the IC50 at 72 h [1] is reported as < 100 nM.

For `CCN(CC)CCc1cn(-c2ccc(/C=C/C(=O)NCc3cccnc3)cc2)c2ccccc12` [Compound 162, (2E)-3-(4-{3-[2-(Diethylamio)ethyl]-1H-indol-1-yl}phenyl)-N-(pyridin-3-ylmethyl)prop-2-enamide], the IC50 at 72 h [1] was < 100 nM.

For `CC(C)N(CCc1cn(-c2ccc(/C=C/C(=O)NCc3cccnc3)cc2)c2ccccc12)C(C)C` [Compound 163], the IC50 at 72 h [1] was < 100 nM.

For `CN(C)C1CN(C(=O)c2nn(-c3ccc(/C=C/C(=O)NCc4cccnc4)cc3)c3ccccc23)C1` [Compound 165, (2E)-3-[4-(3-{[3-(Dimethylamino)azetidin-1-yl]carbonyl}-1H-indazol-1-yl)phenyl]-N-(pyridin-3-ylmethyl)prop-2-enamide], the IC50 at 72 h [1] was < 100 nM.

With `CN(C)C1CCN(C(=O)c2nn(-c3ccc(/C=C/C(=O)NCc4cccnc4)cc3)c3ccccc23)C1` (stereo not shown) [Compound 166, (2E)-3-[4-(3-{[3-(Dimethylamino)pyrrolidin-1-yl]carbonyl}-1H-indazol-1-yl)phenyl]-N-(pyridin-3-ylmethyl)prop-2-enamide] the IC50 at 72 h [1] was < 100 nM.

For `O=C(/C=C/c1ccc(-n2nc(C(=O)N3CCN(C4CCC4)CC3)c3ccccc32)cc1)NCc1cccnc1` [Compound 167, (2E)-3-(4-{3-[(4-Cyclobutylpiperazin-1-yl)carbonyl]-1H-indazol-1-yl}phenyl)-N-(pyridin-3-ylmethyl)prop-2-enamide], the IC50 at 72 h [1] was < 100 nM.

For `O=C(/C=C/c1ccc(-n2nc(C(=O)N3CCC(N4CCCC4)CC3)c3ccccc32)cc1)NCc1cccnc1` [Compound 168, (2E)-N-(Pyridin-3-ylmethyl)-3-[4-(3-{[4-(pyrrolidin-1-yl)piperidin-1-yl]carbonyl}-1H-indazol-1-yl)phenyl]prop-2-enamide], the IC50 at 72 h [1] was < 100 nM.

With `O=C(/C=C/c1ccc(-n2nc(C(=O)N3CCC(N4CCOCC4)C3)c3ccccc32)cc1)NCc1cccnc1` (stereo not shown) [Compound 170, (2E)-3-[4-(3-{[3-(Morpholin-4-yl)pyrrolidin-1-yl]carbonyl}-1H-indazol-1-yl)phenyl]-N-(pyridin-3-ylmethyl)prop-2-enamide] the IC50 at 72 h [1] was < 100 nM.

With `O=C(/C=C/c1ccc(-n2nc(C(=O)N3CCC(N4CCOCC4)CC3)c3ccccc32)cc1)NCc1cccnc1` [Compound 171, (2E)-3-[4-(3-{[4-(Morpholin-4-yl)piperidin-1-yl]carbonyl}-1H-indazol-1-yl)phenyl]-N-(pyridin-3-ylmethyl)prop-2-enamide] the IC50 at 72 h [1] was < 100 nM.

With `O=C(/C=C/c1ccc(-n2nc(C(=O)N3CCN(C4CCCCC4)CC3)c3ccccc32)cc1)NCc1cccnc1` [Compound 173, (2E)-3-(4-{3-[(4-Cyclohexylpiperazin-1-yl)carbonyl]-1H-indazol-1-yl}phenyl)-N-(pyridin-3-ylmethyl)prop-2-enamide] the IC50 at 72 h [1] was < 100 nM.

In the case of `O=C(/C=C/c1ccc(-n2cc(CCN3CCCC3)c3ccccc32)cc1)NCc1cccnc1` [Compound 174, (2E)-N-(Pyridin-3-ylmethyl)-3-(4-{3-[2-(pyrrolidin-1-yl)ethyl]-1H-indol-1-yl}phenyl)prop-2-enamide], the IC50 at 72 h [1] is reported as < 100 nM.

For `O=C(/C=C/c1ccc(-n2nc(C(=O)N3CCC(N4CCCCC4)CC3)c3ccccc32)cc1)NCc1cccnc1` [Compound 177, (2E)-3-{4-[3-(1,4′-Bipiperidin-1′-ylcarbonyl)-1H-indazol-1-yl]phenyl}-N-(pyridin-3-ylmethyl)prop-2-enamide], the IC50 at 72 h (HCT116 cell cytotoxicity IC50) was < 100 nM.

In the case of `O=C(/C=C/c1ccc(-n2cc(CCN3CCOCC3)c3ccccc32)nc1)NCc1cccnc1` [Compound 179, (2E)-3-(6-{3-[2-(Morpholin-4-yl)ethyl]-1H-indol-1-yl}pyridin-3-yl)-N-(pyridin-3-ylmethyl)prop-2-enamide], the IC50 at 72 h [1] is reported as < 100 nM.

For `O=C(CCc1ccc(-n2cc(CCN3CCOCC3)c3ccccc32)cc1)NCc1cccnc1` [Compound 180, 3-(4-{3-[2-(Morpholin-4-yl)ethyl]-1H-indol-1-yl}phenyl)-N-(pyridin-3-ylmethyl)propanamide], the IC50 at 72 h [1] was < 100 nM.

With `O=C(/C=C/c1ccc(-n2cc(CCN3CCCOCC3)c3ccccc32)cc1)NCc1cccnc1` [Compound 181, (2E)-3-(4-{3-[2-(1,4-Oxazepan-4-yl)ethyl]-1H-indol-1-yl}phenyl)-N-(pyridin-3-ylmethyl)prop-2-enamide] the IC50 at 72 h [1] was < 100 nM.

With `O=C(/C=C/c1ccc(-n2cc(CCN3CCCCC3)c3ccccc32)cc1)NCc1cccnc1` [Compound 182, (2E)-3-(4-{3-[2-(Piperidin-1-yl)ethyl]-1H-indol-1-yl}phenyl)-N-(pyridin-3-ylmethyl)prop-2-enamide] the IC50 at 72 h [1] was < 100 nM.
